In data set [1] the test system is ISA virus. The data set can be described thus: Inhibition assay of the replicative cycle of ISAV in SHK-1 cells (real-time RT-PCR of supernatant). Format: cell-based, Infectious Salmon Anemia Virus.
The nature of data set [2]: in vitro. The note with it: Atlantic salmon.
Data set [3] deals with ISA virus. The settings on record: 400 μg/Kg intraperitoneal.
Data set [4] in a line: Toxicity in healthy uninfected smolt fish (tank C2), oral medicated feed. The settings on record: tank C2, dose of 1600 μg/mL (so in the source), normal 44-64%.
The test system of data set [5] is RNA viruses. The settings on record: regularly shown, in general; read-out: EC50 values (effective concentration 50%); cited from earlier work.
For data set [6] the following is noted: patients treated with Rebetol; cited from earlier work.
Data set [7] has as its system ISA virus. The settings on record: for hematocrit: untreated infected C3 42.1%.
For data set [8], the system named is IPNV. The settings on record: cited from earlier work.
Data set [9] concerns VHSV virus (Viral Hemorrhagic Septicemia Virus). The note with it: cited from earlier work.

In brackets after ≈: the same amount, converted by molar mass. Like-named read-outs stand apart in the source and are kept apart here. Where only a bound is given, the exact number is not on record here.

Regarding `CCOC(=O)C1=C[C@@H](OC(CC)CC)[C@H](NC(C)=O)[C@@H](N)C1` [oseltamivir], in [1] (concentrations as high as 300 μg/mL, FIG. 1), the “inhibition of the replication of ISA virus” value is on record as “no more than 60%”.
As to `NC(=O)c1ncn([C@@H]2O[C@H](CO)[C@@H](O)[C@H]2O)n1` [ribavirin, 1-beta-D-ribofuranosyl-1H-1,2,4-triazole-3-carboxamide], in [2], the CC50 at 3 days was greater than 400 µg/mL. The “condition of the analyzed organs during necropsies” value in [3] is reported as “slight improvement”. In addition, in data set [3] (heart, FIG. 17), the “viral load over treatment days” value was “downward trend”. This molecule gave an average hematocrit in [4] of 54%. Further, the EC50 in [5] was no less than 1000 nM; in [1] (Infectious salmon anemia virus, 72 h, read-out: concentration which inhibits 50% of ISA virus replication (EC50)) it was roughly 0.4 µg/mL (≈ 1.64 µM). In addition, in data set [6], the primary toxicity result was “triggers hemolytic anemia”. Besides, the “viral load in dead fish” value in data set [7] (highest dose (T1) compared with T2 and untreated C3, FIG. 8) was “significantly lower”. Besides, the “viral load in intraperitoneally infected fish” value in data set [7] (highest dose (T1), FIG. 9) was “lower”. Besides, the signs at necropsy result in data set [7] (infected treated fish of tanks T1 and T2, FIGS. 14 and 15) was “mild inflammatory signs”. In [7] (lowest dose (T2), FIG. 9), the “viral load in intraperitoneally infected fish versus untreated (C3)” value is reported as “practically the same”. The hematocrit was roughly 45% in data set [7] (tank T1, dose 800 μg/mL (so in the source)) and roughly 45% in data set [7] (tank T2, dose 400 μg/mL (so in the source)). Moreover, in data set [7] (treated fish T1 (800 μg/kg) and T2 (400 μg/kg), heart, real-time RT-PCR), the “viral load versus untreated fish (C3)” value is listed as “in all cases lower than that of the untreated fish”. In data set [8] (400 μg), the “effect of the higher dose on rate of death” value is “produced no greater decrease in the rate of death”. Also, in data set [8] (bath exposure once during two hours, increasing concentrations), the “decrease in rate of dead fish” value was “about 5%”. Besides, the RNA inhibition in [9] (25 μg/ml added at 0 hours post infection, at 10 hours post infection) was 99.8%. The “inhibition of the virus” value in data set [9] (EPC cells, concentrations of 5, 10 and 25 μg/ml) is “strong inhibition”.
In the case of `O=C(O)C1=C[C@@H](O)[C@@H](O)[C@H](O)C1` [shikimic acid], the viral replication inhibition result in data set [1] (up to concentrations of 300 μg/ml, FIG. 2) is on record as “no viral replication inhibition”.

The record behind these values is US8859513B2, “Use of 1-beta-D-ribofuranosyl-1H-1,2,4-triazole-3-carboxamide for the treatment of infectious salmon anemia” (Laboratorio de Diagnostico Gam, S.A., priority 2010, dated 2014).
